Results on six molecules are retold here after patent publication US11555200B2, “Regulation of cotton fiber growth by extracellular nucleotides and ectoapyrases” (priority 2008, dated 2023).

One test deals with cotton fibers. In words: In vitro cotton ovule culture, fiber growth (fiber length). It is filed as cell-based, Gossypium hirsutum. Conditions: for increase in average fiber length: by 7 dpa; for block of promotion of fiber growth by 30 μM ATPγS and ADPβS: co-applied with 30 μM nucleotide, 7 dpa; for reversal of the effects of high concentrations of ATPγS and ADPβS on fiber growth: co-applied with 150 μM ATPγS or ADPβS; for block of both the inhibition and stimulation of fiber growth by ATPγS and ADPβS: summary statement. On the procedure:
In Vitro Ovule Culture. Cotton bolls were harvested within 24 hours of flower opening, 1-DPA, and all petals bracts, and sepals were removed. All collected cotton bolls were used within 24 hours of original harvest. If the bolls were not used immediately they were stored in a 4° C. refrigerator until ready for use. For sterilization, bolls were dropped into an 85% ethanol solution for at least 30 seconds but not more than two minutes and then removed with forceps. The excess ethanol was shaken off and the boll was passed through a flame until the residual ethanol was burned off. Ovules were then excised and placed in 10 mL of BT Cotton Media cell culture (Caisson Laboratories, Inc., North Logan, Utah, USA)+5.0 μM IAA and 0.5 μM GA3 (Sigma, St. Louis, Mo., USA) hormone solution, final concentration, in 60×15 mm Petri dishes and were then wrapped in Milli Wrap (Millipore Corporation, Bedford, Mass.). Twelve to 16 cotton ovules were placed into their respective Petri dishes and incubated with nucleotides, inhibitors, antibody serum or a combination of these at specified concentrations and were cultured at 32° C. in the dark without agitation. To facilitate combing of the cultured ovules, ovules were placed in a 75% ethanol solution for 15 minutes and then taken out to be combed. Fiber lengths were measured manually with a dissecting microscope after laying the ovule on its side and combing the fiber cells away from the ovule with forceps and dissecting probe.
In Vitro Cotton Ovule Culture Treatments. For studies testing the effects of apyrase inhibitors on cotton fiber growth, the inhibitors (NGXT191 and AI #4, both at 2.5 mg/mL), were dissolved in dimethyl sulfoxide and then applied to Cotton Media cell culture at 3 and 5 DPA after the introduction of cotton ovules to the media. For experiments testing the effects of apyrase antibodies on cotton fiber growth, apyrase antibodies were applied to Cotton Media cell culture at 3 and 5 DPA after the introduction of cotton ovules in the appropriate amounts. For experiments testing the effects of applying nucleotides during cotton fiber growth, various concentrations of ATPγS, ADPβS, and AMP (Sigma-Aldrich, Inc., St. Louis, Mo., USA) were added to Cotton Media cell culture at 5 DPA after the introduction of cotton ovules in the appropriate amounts. All nucleotides were made into 50 mM stocks dissolved in de-ionized water and kept at −20° C. while not in use. The inhibitor stocks were stored at ˜20° C. while not in use. For experiments testing the effects of P2-receptor antagonists, the antagonists (PPADS and Adenosine, stocks at 50 mM) were dissolved in de-ionized water and then applied to Cotton Media cell culture at 3 and 5 DPA for inhibitor and antibody experiments and 5 DPA for applied nucleotide experiments. The antagonists stocks were stored at ˜20° C. while not in use (Sigma-Aldrich, Inc., St. Louis, Mo., USA). The ethylene inhibitor (S)-trans-2-Amino-4-(2-aminoethoxy)-3-butenoic acid hydrochloride (Sigma-Aldrich, Inc., St. Louis, Mo., USA) (AVG, stock at 50 mM) was dissolved in de-ionized water and then applied to Cotton Media cell culture at 5 DPA. The production of the Arabidopsis anti-APY1 and APY2 antibodies used is described by Steinebrunner et al. (2003). The crude immune and pre-immune sera were purified using protein A-sepharose following the protocol described by Martin et al. (1982) with the slight modification that the buffers used were azide-free. Bio-rad assay was used to determine that the concentration of the immune serum and pre-immune serum which was 0.46 μg/mL and 0.3 μg/mL, respectively.

The next test relates to apyrase activity. Kind of test: ATP level in the medium outside growing cotton fibers in ovule culture. It is filed as cell-based, Gossypium hirsutum. Conditions: highest concentration of inhibitor, versus control level of 330 nM. From the text: Apyrase inhibitors and anti-apyrase antibodies inhibit fiber elongation. In order to test whether apyrase activity is important during cotton fiber growth we applied varying concentrations of two different chemical apyrase inhibitors, apyrase inhibitor 4 and NGXT191, to cotton ovule cultures at 3 dpa and 5 dpa. […] There is clearly a dose-dependent effect, and the effects at each dosage are statistically significant. […] The level of inhibition increased with increasing concentrations of both inhibitors. Next when PPADS, an inhibitor of animal purinoceptors, was tested, it could block the 40% inhibition of fiber growth caused by application of the highest concentration of apyrase inhibitors. […] Application of the highest concentration of inhibitors NGXT191 and 4 caused a 2.1-fold and 3.2-fold increase in ATP levels, respectively.
In Vitro Ovule Culture. Cotton bolls were harvested within 24 hours of flower opening, 1-DPA, and all petals bracts, and sepals were removed. All collected cotton bolls were used within 24 hours of original harvest. If the bolls were not used immediately they were stored in a 4° C. refrigerator until ready for use. […] Fiber lengths were measured manually with a dissecting microscope after laying the ovule on its side and combing the fiber cells away from the ovule with forceps and dissecting probe. […]

Entries after “also recorded” stand apart in the source; their conditions may differ.

As for `Nc1ncnc2c1ncn2[C@@H]1O[C@H](COP(=O)(O)OP(O)(O)=S)[C@@H](O)[C@H]1O` [ADPβS], the “increase in average fiber length” value with cotton fibers (30 μM) is 44%. Further, the “effect on fiber growth” value in the test with cotton fibers (150 μM, at 7 dpa) is “inhibit growth”.
As to `Nc1ncnc2c1ncn2[C@@H]1O[C@H](COP(O)(O)=S)[C@@H](O)[C@H]1O` [AMPS], the “effect on fiber growth” value is “no effect on growth” with cotton fibers (200 μM, at 7 dpa) and “no change in the growth rate; also recorded: no effect on fiber growth” in the test with cotton fibers (concentration not given).
On to `Nc1ncnc2c1ncn2[C@@H]1O[C@H](COP(=O)(O)OP(=O)(O)OP(O)(O)=S)[C@@H](O)[C@H]1O` [ATPγS], for which the “promotion of cotton fiber growth” value in the test with cotton fibers (30 μM, at 5 dpa (data not shown)) is “statistically significant levels of promotion of cotton fiber growth”. Also, in the test on cotton fibers (30 μM, between 5 dpa and 7 dpa (data not shown)), the “growth rate of fibers” value was “statistically significant increase in the growth rate”. In addition, in the test on cotton fibers (30 μM), the “increase in average fiber length” value came to 46%. The “inhibition of cotton fiber growth” value with cotton fibers (150 μM, at 5 dpa) was “Statistically significant levels of inhibition of cotton fiber growth”. The “effect on fiber growth” value in the test on cotton fibers (150 μM, at 7 dpa) is reported as “inhibit growth”.
In the case of `Cc1cccc(NS(=O)(=O)c2ccc(-c3ccccc3)cc2)c1` [NGXT191], the “inhibition of fiber growth” value in the test on cotton fibers (all three concentrations, applied at 3 dpa and 5 dpa, fibers measured at 7 dpa) is “statistically significant inhibition of fiber growth”. In addition, the “increase in ATP levels outside of the growing fibers” value with apyrase activity was determined as 2.1 fold.
Regarding `Cc1nc(N=Nc2ccc(S(=O)(=O)O)cc2S(=O)(=O)O)c(COP(=O)(O)O)c(C=O)c1O` [PPADS], the “reversal of fiber growth inhibition caused by apyrase inhibitors” value with cotton fibers (250 μM PPADS in the media with highest concentration of apyrase inhibitors) is listed as “returned to control levels”. Besides, in the test with cotton fibers, the “block of promotion of fiber growth by 30 μM ATPγS and ADPβS” value was “blocked”; the “reversal of the effects of high concentrations of ATPγS and ADPβS on fiber growth” value is “reversed”; the “block of both the inhibition and stimulation of fiber growth by ATPγS and ADPβS” value is on record as “blocked”.
On to `Nc1ncnc2c1ncn2[C@@H]1O[C@H](CO)[C@@H](O)[C@H]1O` [adenosine], for which, in the test on cotton fibers, the “block of promotion of fiber growth by 30 μM ATPγS and ADPβS” value is “blocked”; the “reversal of the effects of high concentrations of ATPγS and ADPβS on fiber growth” value was “reversed”; the “block of both the inhibition and stimulation of fiber growth by ATPγS and ADPβS” value is given as “blocked”.
